Data taken from patent US7217722B2 (Kirin Beer Kabushiki Kaisha, priority 2000, dated 2007).
Structures can show the parent of a compound that is named as a salt.

tested on: spontaneously hypertensive male rats (SHR); assay: Antihypertensive activity in spontaneously hypertensive rats; format: in vivo; conditions: Rattus norvegicus, po, 30 mg/kg oral, systolic pressure 3 to 4 hr after administration, mean ± SEM of 3 to 4 SHRs, read-out: Blood pressure depression, %
Protocol: This test was carried out as follows. A test compound was dissolved in purified water, or alternatively the test compound was suspended in a 5% aqueous sodium carboxymethylcellulose solution. The solution or the suspension was forcibly administered into the gaster of SHR through an oral probe. The systolic pressure of SHR was measured with a bloodless sphygmometer (BP-98A, Softron Co.) immediately before the administration of the test compound and 3 to 4 hr after the administration of the test compound or 6 to 7 hr after the administration of the test compound. The percentage of blood pressure depression was calculated by the following equation: Antihypertensive activity (%)={(blood pressure before administration of test compound−blood pressure after administration of test compound)/blood pressure before administration of test compound}×100
Each compound was administered at 30 mg/kg, and the antihypertensive activity (%) was expressed in terms of the mean value of 3 to 4 SHRs and SEM (standard error of the mean).
For data with *, the blood pressure was measured 6 to 7 hr after the administration of the test compound, and, for data with no marks, the blood pressure was measured 3 to 4 hr after the administration of the test compound.

SMILES	inhibition in vivo at 30 mg/kg [%]
FC(F)(F)CCCN1CCCC(Nc2cccc3cnccc23)C1 (stereo not shown) [Example 273, N-(5-isoquinolyl)-N-[1-(4,4,4-trifluorobutyl)-3-piperidyl]amine]	30.4 ± 7.3
FCCCN1CCC(Nc2cccc3cnccc23)CC1 [Example 322, N-[1-(3-fluoropropyl)-4-piperidyl]-N-(5-isoquinolyl)amine]	41.4 ± 7.4
CCCN1CCC(Nc2ccc3[nH]ncc3c2)CC1 [Example 286, N-(1H-5-indazolyl)-N-(1-propyl-4-piperidyl)-amine]	23.6 ± 8.6
c1cc2[nH]ncc2cc1NC1CCN(CC2CC2)CC1 [Example 287, N-[1-(cyclopropylmethyl)-4-piperidyl]-N-(1H-5-indazolyl)amine]	24.4 ± 6.8
c1cc2[nH]ncc2cc1N[C@H]1CC[C@@H](NC2CC2)CC1 [Example 247 (syn), N1-Cyclopropyl-N4-(1H-5-indazolyl)-1,4-cyclohexanediamine]	43.3 ± 1.2
CCCN1CCC(Nc2cccc3cnccc23)CC1 [Example 318, N-(5-isoquinolyl)-N-(1-propyl-4-piperidyl)-amine]	22.7 ± 5.1

target: Rho kinase (fused protein of bovine Rho kinase catalyst region and glutathione S-transferase) (Bos taurus, UniProt Q28021); assay: Rho kinase inhibitory activity (phosphorylation of S6 231–239 substrate, γ32P-ATP); format: biochemical; conditions: concentration inhibiting substrate phosphorylation by 50%
Protocol: This permits the substrate to be labeled with the radioisotope.
Thereafter, the substrate was adsorbed to a filter paper. ATP was washed away with a phosphoric acid solution, and the amount of the phosphorylated substrate was then measured with a liquid scintillation counter.

Chain of Rho kinase (fused protein of bovine Rho kinase catalyst region and glutathione S-transferase) (Q28021 92-354 limits assumed): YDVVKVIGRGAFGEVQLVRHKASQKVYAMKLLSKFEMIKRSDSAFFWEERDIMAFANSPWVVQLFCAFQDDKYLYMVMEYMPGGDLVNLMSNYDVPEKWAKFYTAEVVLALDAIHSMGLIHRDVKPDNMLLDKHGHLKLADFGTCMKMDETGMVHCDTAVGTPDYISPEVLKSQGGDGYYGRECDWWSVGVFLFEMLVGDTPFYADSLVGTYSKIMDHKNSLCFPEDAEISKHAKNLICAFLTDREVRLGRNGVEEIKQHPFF

IC50 [nM]	SMILES
287	c1cc2[nH]ncc2cc1NC1CCNCC1 [Example 128, N-(1H-5-indazolyl)-N-(4-piperidyl)amine]
110	CC(NC(=O)Nc1ccc2c(c1)C(=O)NC2=O)c1ccc(Br)cc1 (stereo not shown) [Example 20, N-[1-(4-bromophenyl)ethyl]-N′-(1,3-dioxo-2,3-dihydro-1H-5-isoindolyl)urea]
85	O=C(NCc1c(F)cccc1F)Nc1ccc2[nH]ncc2c1 [Example 95, N-(2,6-difluorobenzyl)-N′-(1H-5-indazolyl)urea]
79	O=C(NCc1c(F)cccc1Cl)Nc1ccc2[nH]ncc2c1 [Example 102, N-(2-chloro-6-fluorobenzyl)-N′-(1H-5-indazolyl)urea]
770	O=C(NCc1c(Cl)cccc1Cl)Nc1ccncc1 [Example 80, N-(2,6-dichlorobenzyl)-N′-(4-pyridyl)urea]
69	O=C(NCc1c(F)cccc1F)Nc1ccc2c(c1)C(=O)NC2=O [Example 90, N-(2,6-difluorobenzyl)-N′-(1,3-dioxo-2,3-dihydro-1H-5-isoindolyl)urea]
60	O=C(NCc1c(F)cccc1Cl)Nc1ccc2c(c1)C(=O)NC2=O [Example 83, N-(2-chloro-6-fluorobenzyl)-N′-(1,3-dioxo-2,3-dihydro-1H-6-isoindolyl)urea]
1	COc1cc(CN2CCC(Nc3ccc4[nH]ncc4c3)C2)cc(OC)c1 (stereo not shown) [Example 160, N-[1-(3,5-Dimethoxybenzyl)tetrahydro-1H-3-pyrrolyl]-N-(1H-5-indazolyl)amine]
240	O=C(NCc1ccccc1Cl)Nc1ccc2[nH]ncc2c1 [Example 104, N-(2-Chlorobenzyl)-N′-(1H-5-indazolyl)urea]
605	COc1ccc(/C=C/C(=O)Nc2ccc3[nH]ncc3c2)cc1OC [Example 42, N1-(1H-5-Indazolyl)-(E)-3-(3,4-dimethoxyphenyl)-2-propeneamide]
87	O=[N+]([O-])c1ccc(CN2CCCC(Nc3ccc4[nH]ncc4c3)C2)cc1 (stereo not shown) [Example 169, N-(1H-5-Indazolyl)-N-[1-(4-nitrobenzyl)-3-piperidyl]amine]
6030	O=C(NCC1CCCCC1)Nc1ccncc1 [Example 75, N-Cyclohexylmethyl-N′-(4-pyridyl)urea]
241	CCc1ccc(CN2CCC(Nc3ccc4[nH]ncc4c3)CC2)cc1 [Example 120, N-[1-(4-Ethylbenzyl)-4-piperidyl]-N-(1H-5-indazolyl)amine]
1770	O=C(NCc1cccc([N+](=O)[O-])c1)Nc1ccncc1 [Example 111, N-(3-Nitrobenzyl)-N′-(4-pyridyl)urea]
2540	O=C(/C=C/c1c(Cl)cccc1Cl)Nc1ccncc1 [Example 7, N1-(4-Pyridyl)-(E)-3-(2,6-dichlorophenyl)-2-propeneamide]
8570	Nc1cccc(NC(=O)Nc2ccc3c(c2)C(=O)NC3=O)c1 [Example 79]

SMILES	IC50 [nM]
c1ccc(CN2CCC(Nc3ccc4[nH]ncc4c3)C2)cc1 (stereo not shown) [Example 146, N-(1-benzyltetrahydro-1H-pyrrolyl)-N-(1H-5-indazolyl)amine]	32

tested on: Human-derived histiocyte lymphoma (U937/CCR2); assay: Leukocyte migration inhibitory activity (MCP-1 induced migration, CHEMOTAXICELL); format: cell-based; conditions: Homo sapiens, U-937, 1 h, test compound 0.03 μM; U937/CCR2, MCP-1, 1 hr; read-out: Migration inhibition (%) ± SEM
Protocol: Human-derived histiocyte lymphoma (U937/CCR2), in which mouse-derived CCR2 had been highly expressed, was suspended in a 0.1% BSA-containing RPMI 1640 medium, to which a test compound had been added (5×10^6/ml), and the suspension was incubated for 20 min. A chemical solution (500 μl) (0.1% BSA-containing RPMI 1640 medium DMSO 1%), to which an MCP-1 ligand (1 μM) and the test compound had been added, was added to a 24-well plate. CHEMOTAXICELL was put thereon, and 200 μl of the cell suspension was added to the top layer, followed by migration under 5% carbon dioxide at 37° C. for one hr. The number of cells, which had migrated to the lower chamber, was counted with a particle count analyzer (CDA-500, SYSMEX CORPORATION), and the percentage migration inhibition was calculated by the following equation; Migration inhibition (%)={1−(number of migrated cells in the presence of test compound/number of migrated cells in the absence of test compound)}×100

SMILES	inhibition at 0.03 µM [%]
COC(=O)C(c1ccccc1)N1CCCC(Nc2ccc3[nH]ncc3c2)C1 (stereo not shown) [Example 221, methyl 2-[3-(1H-5-indazolylamino)piperidino]-2-phenylacetate]	27.5 ± 33.6

same assay, conditions: Homo sapiens, U-937, 1 h, test compound 0.1 μM; U937/CCR2, MCP-1, 1 hr; read-out: Migration inhibition (%) ± SEM

SMILES	inhibition at 0.1 µM [%]
COC(=O)C(c1ccc(F)c(F)c1)N1CCCC(Nc2ccc3[nH]ncc3c2)C1 (stereo not shown) [Example 294]	87.4 ± 6.4

same assay, conditions: Homo sapiens, U-937, 1 h, test compound 0.3 μM; U937/CCR2, MCP-1, 1 hr; read-out: Migration inhibition (%) ± SEM

SMILES	inhibition at 0.3 µM [%]
COC(=O)C(c1ccccc1)N1CCCC(Nc2ccc3[nH]ncc3c2)C1 (stereo not shown) [Example 221, methyl 2-[3-(1H-5-indazolylamino)piperidino]-2-phenylacetate]	90.8 ± 11
c1cc(NC2CCC(NC3CC3)CC2)c2ccncc2c1 (stereo not drawn) [262 (anti), N1-Cyclopropyl-N4-(5-isoquinolyl)-1,4-cyclohexanediamine]	24.4 ± 8.1
COC(=O)C(c1ccc(F)c(F)c1)N1CCCC(Nc2ccc3[nH]ncc3c2)C1 (stereo not shown) [Example 294]	98.3 ± 1.4

same assay, conditions: Homo sapiens, U-937, 1 h, test compound 1 μM; U937/CCR2, MCP-1, 1 hr; read-out: Migration inhibition (%) ± SEM

SMILES	inhibition at 1 µM [%]
Fc1cc(F)c(CN2CCCC(Nc3ccc4[nH]ncc4c3)C2)c(F)c1 (stereo not shown) [Example 282, N-(1H-5-indazolyl)-N-[1-(2,4,6-trifluorobenzyl)-3-piperidyl]amine]	29.9 ± 4.1
CCCN[C@H]1CC[C@H](Nc2cccc3cnccc23)CC1 [260 (anti)]	77.4 ± 14.4
CCC(CC)CN1CCC(Nc2cccc3cnccc23)CC1 [Example 320, N-[1-(2-ethylbutyl)-4-piperidyl]-N-(5-isoquinolyl)amine]	82.9 ± 7
c1cc(NC2CCC(NC3CC3)CC2)c2ccncc2c1 (stereo not drawn) [262 (anti), N1-Cyclopropyl-N4-(5-isoquinolyl)-1,4-cyclohexanediamine]	82.5 ± 6.69

same assay, conditions: Homo sapiens, U-937, 1 h, test compound 3 μM; U937/CCR2, MCP-1, 1 hr; read-out: Migration inhibition (%) ± SEM

SMILES	inhibition at 3 µM [%]
c1cc2[nH]ncc2cc1NC1CCNCC1 [Example 128, N-(1H-5-indazolyl)-N-(4-piperidyl)amine]	2.9 ± 12.3
CC(NC(=O)Nc1ccc2c(c1)C(=O)NC2=O)c1ccc(Br)cc1 (stereo not shown) [Example 20, N-[1-(4-bromophenyl)ethyl]-N′-(1,3-dioxo-2,3-dihydro-1H-5-isoindolyl)urea]	46.7 ± 19.4
O=C(NCc1c(F)cccc1F)Nc1ccc2[nH]ncc2c1 [Example 95, N-(2,6-difluorobenzyl)-N′-(1H-5-indazolyl)urea]	17.1 ± 11.7
c1ccc(CCN[C@H]2CC[C@@H](Nc3ccc4[nH]ncc4c3)CC2)cc1 [259 (syn), N1-(1H-5-Indazolyl)-N4-phenylethyl-1,4-cyclohexanediamine]	85.3 ± 8.5
O=C(NCc1c(F)cccc1Cl)Nc1ccc2[nH]ncc2c1 [Example 102, N-(2-chloro-6-fluorobenzyl)-N′-(1H-5-indazolyl)urea]	6.8 ± 17
CCCNC1CCC(Nc2ccc3[nH]ncc3c2)CC1 (stereo not shown) [Example 243, N1-(1H-5-indazolyl)-N4-propyl-1,4-cyclohexanediamine]	82.8 ± 7.1
O=C(NCc1c(Cl)cccc1Cl)Nc1ccncc1 [Example 80, N-(2,6-dichlorobenzyl)-N′-(4-pyridyl)urea]	26 ± 4.7
c1ccc(CN2CCC(Nc3ccc4[nH]ncc4c3)C2)cc1 (stereo not shown) [Example 146, N-(1-benzyltetrahydro-1H-pyrrolyl)-N-(1H-5-indazolyl)amine]	45.6 ± 9.5
CCCC(C)CN1CCCC(Nc2ccc3[nH]ncc3c2)C1 (stereo not shown) [Example 281, N-(1H-5-indazolyl)-N-[1-(2-methylpentyl)-3-piperidyl]amine]	100 ± 8.2
Fc1ccc(CN2CCCC(Nc3ccc4[nH]ncc4c3)C2)c(Cl)c1 (stereo not shown) [Example 293, N-[1-(2-chloro-4-fluorobenzyl)-3-piperidyl]-N-(1H-5-indazolyl)amine]	93.5 ± 9.9
O=C(NCc1c(F)cccc1Cl)Nc1ccc2c(c1)C(=O)NC2=O [Example 83, N-(2-chloro-6-fluorobenzyl)-N′-(1,3-dioxo-2,3-dihydro-1H-6-isoindolyl)urea]	16.1 ± 9.6
Brc1ccc(CN2CCC(Nc3ccc4[nH]ncc4c3)CC2)cc1 [Example 22]	34.8 ± 12.4

same assay, conditions: Homo sapiens, U-937, 1 h, test compound 30 μM; U937/CCR2, MCP-1, 1 hr; read-out: Migration inhibition (%) ± SEM

SMILES	inhibition at 30 µM [%]
c1cc2[nH]ncc2cc1NC1CCNCC1 [Example 128, N-(1H-5-indazolyl)-N-(4-piperidyl)amine]	45.9 ± 12.3
CC(NC(=O)Nc1ccc2c(c1)C(=O)NC2=O)c1ccc(Br)cc1 (stereo not shown) [Example 20, N-[1-(4-bromophenyl)ethyl]-N′-(1,3-dioxo-2,3-dihydro-1H-5-isoindolyl)urea]	95.4 ± 3.4
O=C(NCc1c(F)cccc1F)Nc1ccc2[nH]ncc2c1 [Example 95, N-(2,6-difluorobenzyl)-N′-(1H-5-indazolyl)urea]	77.6 ± 6.4
O=C(NCc1c(F)cccc1Cl)Nc1ccc2[nH]ncc2c1 [Example 102, N-(2-chloro-6-fluorobenzyl)-N′-(1H-5-indazolyl)urea]	96.7 ± 1
O=C(NCc1c(Cl)cccc1Cl)Nc1ccncc1 [Example 80, N-(2,6-dichlorobenzyl)-N′-(4-pyridyl)urea]	65.1 ± 17.3
O=C(NCc1c(F)cccc1F)Nc1ccc2c(c1)C(=O)NC2=O [Example 90, N-(2,6-difluorobenzyl)-N′-(1,3-dioxo-2,3-dihydro-1H-5-isoindolyl)urea]	78.3 ± 3.2
c1ccc(CN2CCC(Nc3ccc4[nH]ncc4c3)C2)cc1 (stereo not shown) [Example 146, N-(1-benzyltetrahydro-1H-pyrrolyl)-N-(1H-5-indazolyl)amine]	93.9 ± 1.7
O=C(NCc1c(F)cccc1Cl)Nc1ccc2c(c1)C(=O)NC2=O [Example 83, N-(2-chloro-6-fluorobenzyl)-N′-(1,3-dioxo-2,3-dihydro-1H-6-isoindolyl)urea]	92.5 ± 3.3
Brc1ccc(CN2CCC(Nc3ccc4[nH]ncc4c3)CC2)cc1 [Example 22]	92.9 ± 1.3

same assay, conditions: test compound 1 μM; U937/CCR2, MCP-1, 1 hr; 1 µM

SMILES	Migration inhibition (%) ± SEM [%]
c1cc(NC2CCC(NC3CC3)CC2)c2ccncc2c1 (stereo not drawn) [262 (syn), N1-Cyclopropyl-N4-(5-isoquinolyl)-1,4-cyclohexanediamine]	69.9 ± 15.1

same assay, conditions: test compound 3 μM; U937/CCR2, MCP-1, 1 hr

SMILES	Migration inhibition (%) ± SEM [%]
Cl.c1ccc(CN2CCCC(Nc3ccc4[nH]ncc4c3)C2)cc1 (stereo not shown) [Example 21.HCl, N-(1-Benzyl-3-piperidyl)-N(1H-5-indazolyl)amine]	83.5 ± 3.3

same assay, conditions: test compound 3 μM; U937/CCR2, MCP-1, 1 hr; 3 µM

SMILES	Migration inhibition (%) ± SEM [%]
c1ccc(CN2CCC(Nc3ccc4[nH]ncc4c3)C2)cc1 (stereo not shown) [Example 146.HCl, N-(1-Benzyltetrahydro-1H-pyrrolyl)-N-(1H-5-indazolyl)amine]	74.5 ± 1.7

same assay, conditions: test compound 30 μM; U937/CCR2, MCP-1, 1 hr

SMILES	Migration inhibition (%) ± SEM [%]
Cl.c1ccc(CN2CCCC(Nc3ccc4[nH]ncc4c3)C2)cc1 (stereo not shown) [Example 21.HCl, N-(1-Benzyl-3-piperidyl)-N(1H-5-indazolyl)amine]	99.1 ± 0.4

same assay, conditions: test compound 30 μM; U937/CCR2, MCP-1, 1 hr; 30 µM

SMILES	Migration inhibition (%) ± SEM [%]
c1ccc(CN2CCC(Nc3ccc4[nH]ncc4c3)C2)cc1 (stereo not shown) [Example 146.HCl, N-(1-Benzyltetrahydro-1H-pyrrolyl)-N-(1H-5-indazolyl)amine]	97.9 ± 1.0
